In brackets after ≈: the same amount, converted by molar mass. Activity calls are given as the source filed them. The rule behind the calls is not given here.
Tests used:
[1] = test system: Candida parapsilosis; assay: Antifungal activity against Candida parapsilosis isolate CP1 measured after 48 hrs by CLSI M27-A3 protocol based method; format: functional; conditions: Lodderomyces parapsilosis, isolate CP1, 48 h
[2] = test system: Candida albicans; assay: Antifungal activity against Candida albicans ATCC 64124 measured after 48 hrs by CLSI M27-A3 protocol based method; format: functional; conditions: Candida albicans, ATCC 64124, 48 h; read-out: MIC
[3] = test system: Candida albicans; assay: Antifungal activity against fluconazole/ITC-resistant Candida albicans ATCC MYA-1237 measured after 48 hrs by CLSI M27-A3 protocol based method; format: functional; conditions: Candida albicans, ATCC MYA-1237, 48 h; read-out: MIC
[4] = test system: Candida parapsilosis; assay: Antifungal activity against Candida parapsilosis ATCC 22019 measured after 48 hrs by CLSI M27-A3 protocol based method; format: functional; conditions: Lodderomyces parapsilosis, ATCC 22019, 48 h
[5] = test system: Candida albicans; assay: Antifungal activity against fluconazole/ITC-resistant Candida albicans ATCC 90819 measured after 48 hrs by CLSI M27-A3 protocol based method; format: functional; conditions: Candida albicans, ATCC 90819, 48 h; read-out: MIC
[6] = test system: Cryptococcus neoformans; assay: Antifungal activity against Cryptococcus neoformans isolate CN3 measured after 48 hrs by CLSI M27-A3 protocol based method; format: functional; conditions: Cryptococcus neoformans, isolate CN3, 48 h; read-out: MIC
[7] = test system: Aspergillus terreus; assay: Antifungal activity against Aspergillus terreus ATCC MYA-3633 measured after 48 hrs by CLSI M38-A2 protocol based method; format: functional; conditions: ATCC MYA-3633, 48 h
[8] = test system: Nakaseomyces glabratus; assay: Antifungal activity against Candida glabrata isolate CG2 measured after 48 hrs by CLSI M27-A3 protocol based method; format: functional; conditions: Nakaseomyces glabratus, isolate CG2, 48 h; read-out: MIC
[9] = test system: Candida albicans; assay: Antifungal activity against Candida albicans ATCC 10231 measured after 48 hrs by CLSI M27-A3 protocol based method; format: functional; conditions: ATCC 10231, 48 h
[10] = test system: Candida parapsilosis; assay: Antifungal activity against Candida parapsilosis isolate CP3 measured after 48 hrs by CLSI M27-A3 protocol based method; format: functional; conditions: Lodderomyces parapsilosis, isolate CP3, 48 h
[11] = test system: Candida albicans; assay: Antifungal activity against fluconazole/ITC-resistant Candida albicans ATCC MYA-1003 measured after 48 hrs by CLSI M27-A3 protocol based method; format: functional; conditions: Candida albicans, ATCC MYA-1003, 48 h; read-out: MIC
[12] = test system: Aspergillus flavus; assay: Antifungal activity against Aspergillus flavus ATCC MYA-3631 measured after 48 hrs by CLSI M38-A2 protocol based method; format: functional; conditions: ATCC MYA-3631, 48 h
[13] = test system: Candida albicans; assay: Induction of membrane permeabilization in Candida albicans ATCC 10231 assessed as membrane disruption at 4 times MIC after 1 hr by propidium iodide staining based fluorescence microscopy; format: functional, organism-based
[14] = test system: Nakaseomyces glabratus; assay: Antifungal activity against Candida glabrata isolate CG3 measured after 48 hrs by CLSI M27-A3 protocol based method; format: functional; conditions: Nakaseomyces glabratus, 48 h; read-out: MIC
[15] = test system: Candida albicans; assay: Antifungal activity against fluconazole/ITC-susceptible Candida albicans ATCC MYA-2876 measured after 48 hrs by CLSI M27-A3 protocol based method; format: functional; conditions: Candida albicans, ATCC MYA-2876, 48 h
[16] = test system: Pichia kudriavzevii; assay: Antifungal activity against Candida krusei ATCC 6258 measured after 48 hrs by CLSI M27-A3 protocol based method; format: functional; conditions: Pichia kudriavzevii, ATCC 6258, 48 h
[17] = test system: Candida albicans; assay: Antifungal activity against fluconazole/ITC-susceptible Candida albicans ATCC MYA-2310 measured after 48 hrs by CLSI M27-A3 protocol based method; format: functional; conditions: Candida albicans, ATCC MYA-2310, 48 h; read-out: MIC
[18] = test system: Nakaseomyces glabratus; assay: Antifungal activity against Candida glabrata isolate CG1 measured after 48 hrs by CLSI M27-A3 protocol based method; format: functional; conditions: Nakaseomyces glabratus, 48 h; read-out: MIC
[19] = test system: Cryptococcus neoformans; assay: Antifungal activity against Cryptococcus neoformans isolate CN2 measured after 48 hrs by CLSI M27-A3 protocol based method; format: functional; conditions: Cryptococcus neoformans, isolate CN2, 48 h; read-out: MIC
[20] = test system: Nakaseomyces glabratus; assay: Antifungal activity against Candida glabrata ATCC 2001 measured after 48 hrs by CLSI M27-A3 protocol based method; format: functional, CBS 138; conditions: Nakaseomyces glabratus, CBS 138, 48 h; read-out: MIC
[21] = test system: Aspergillus nidulans; assay: Antifungal activity against Aspergillus nidulans ATCC 38163 measured after 48 hrs by CLSI M38-A2 protocol based method; format: functional; conditions: ATCC 38163, 48 h
[22] = test system: Cryptococcus neoformans; assay: Antifungal activity against Cryptococcus neoformans isolate CN1 measured after 48 hrs by CLSI M27-A3 protocol based method; format: functional; conditions: isolate CN1, 48 h
[23] = test system: Candida parapsilosis; assay: Antifungal activity against Candida parapsilosis isolate CP2 measured after 48 hrs by CLSI M27-A3 protocol based method; format: functional; conditions: Lodderomyces parapsilosis, isolate CP2, 48 h

Row | Compound | MIC [1] [µM] | MIC [2] [µM] | MIC [3] [µM] | MIC [4] [µM] | MIC [5] [µM] | MIC [6] [µM] | MIC [7] [µM] | MIC [8] [µM] | MIC [9] [µM] | MIC [10] [µM] | MIC [11] [µM] | MIC [12] [µM] | MIC [14] [µM] | MIC [15] [µM] | MIC [16] [µM] | MIC [17] [µM] | MIC [18] [µM] | MIC [19] [µM] | MIC [20] [µM] | MIC [21] [µM] | further results
1 | CCCCCCNCC(O)(Cn1cncn1)c1ccc(F)cc1F (stereo not given) | 2.9 (≈ 0.981 µg/mL) | > 92.3 | > 92.3 | 2.9 (≈ 0.981 µg/mL) | 92.3 (≈ 31.2 µg/mL) | 92.3 (≈ 31.2 µg/mL) | > 92.3 | 23 (≈ 7.78 µg/mL) | 23 (≈ 7.78 µg/mL) | 2.9 (≈ 0.981 µg/mL) | 92.3 (≈ 31.2 µg/mL) | > 92.3 | 92.3 (≈ 31.2 µg/mL) | 46.1 (≈ 15.6 µg/mL) | 23 (≈ 7.78 µg/mL) | 92.3 (≈ 31.2 µg/mL) | 92.3 (≈ 31.2 µg/mL) | > 92.3 | 23 to 46.1 (≈ 7.78 to 15.6 µg/mL) | > 92.3 | Activity [13]: inactive; MIC [22]: 23 µM (≈ 7.78 µg/mL); MIC [23]: 2.9 µM (≈ 0.981 µg/mL)
2 | OC(CNC1CCCCCCC1)(Cn1cncn1)c1ccc(F)cc1F (stereo not given) | 2.7 (≈ 0.984 µg/mL) | 85.8 (≈ 31.3 µg/mL) | 85.8 (≈ 31.3 µg/mL) | 10.7 (≈ 3.9 µg/mL) | 85.8 (≈ 31.3 µg/mL) | 42.8 (≈ 15.6 µg/mL) | > 85.8 | 42.8 (≈ 15.6 µg/mL) | 85.8 (≈ 31.3 µg/mL) | 5.4 (≈ 1.97 µg/mL) | > 85.8 | 85.8 (≈ 31.3 µg/mL) | 85.8 (≈ 31.3 µg/mL) | > 85.8 | 85.8 (≈ 31.3 µg/mL) | 10.7 to 85.8 (≈ 3.9 to 31.3 µg/mL) | 85.8 (≈ 31.3 µg/mL) | > 85.8 | 85.8 (≈ 31.3 µg/mL) | > 85.8 | MIC [22]: 21.4 µM (≈ 7.8 µg/mL); MIC [23]: 2.7 µM (≈ 0.984 µg/mL)
3 | CC(C)c1ccc(NCC(O)(Cn2cncn2)c2ccc(F)cc2F)cc1 (stereo not given) | 10.5 (≈ 3.91 µg/mL) | > 84 | 84 (≈ 31.3 µg/mL) | 20.9 (≈ 7.78 µg/mL) | 84 (≈ 31.3 µg/mL) | > 84 | 41.9 (≈ 15.6 µg/mL) | 20.9 (≈ 7.78 µg/mL) | > 84 | 10.5 (≈ 3.91 µg/mL) | 84 (≈ 31.3 µg/mL) | 84 (≈ 31.3 µg/mL) | 20.9 (≈ 7.78 µg/mL) | > 84 | > 84 | 84 (≈ 31.3 µg/mL) | 20.9 (≈ 7.78 µg/mL) | 84 (≈ 31.3 µg/mL) | 20.9 to 84 (≈ 7.78 to 31.3 µg/mL) | 20.9 (≈ 7.78 µg/mL) | MIC [22]: 20.9 µM (≈ 7.78 µg/mL); MIC [23]: 10.5 µM (≈ 3.91 µg/mL)
4 | CCCCCCCCCCCCCCSC[C@H]1O[C@H](O[C@H]2[C@H](O)[C@@H](O[C@H]3O[C@H](CO)[C@@H](O)[C@H](N)[C@H]3O)[C@H](N)C[C@@H]2N)[C@H](N)[C@@H](O)[C@@H]1O |  |  |  |  |  |  |  |  |  |  |  |  |  |  |  |  |  |  |  |  | Activity [13]: Active
5 | CCCCCCCCN(CCCCCCCC)CC(O)(Cn1cncn1)c1ccc(F)cc1F (stereo not given) | 2 (≈ 0.957 µg/mL) | > 65.4 | 65.4 (≈ 31.3 µg/mL) | 2 (≈ 0.957 µg/mL) | 65.4 (≈ 31.3 µg/mL) | > 65.4 | > 65.4 | 16.3 (≈ 7.8 µg/mL) | 65.4 (≈ 31.3 µg/mL) | 4.1 (≈ 1.96 µg/mL) | > 65.4 | > 65.4 | 65.4 (≈ 31.3 µg/mL) | 65.4 (≈ 31.3 µg/mL) | 65.4 (≈ 31.3 µg/mL) | > 65.4 | 32.6 (≈ 15.6 µg/mL) | > 65.4 | 65.4 (≈ 31.3 µg/mL) | 32.7 (≈ 15.7 µg/mL) | MIC [22]: > 65.4 µM; MIC [23]: 4.1 µM (≈ 1.96 µg/mL)

Source: ChEMBL document CHEMBL4118101 (Bioorg Med Chem, 2018)
